US7910747B2, “Phosphonate and phosphinate pyrazolylamide glucokinase activators” (Bristol-Myers Squibb Company, priority 2006, dated 2011)

Experiments:
[1] = tested on: male DIO (diet-induced obese) C57BL/6J mice; test: Oral glucose tolerance test (OGTT) in DIO mice; type: in vivo; settings: 60 min before 2 g/kg oral glucose, DIO C57BL/6J mice; for Reduction in Glucose AUC at 30 mg/kg dose: 30 mg/kg oral
Description: […]. Mice were fasted overnight before use for experiments. A test compound or vehicle (either: 1) 40% PEG 400+10% Cremophore +50% water or 2) 10% dimethyl acetamide +10% ethanol +10% Cremophore +70% water) was given orally 60 min before oral administration of a glucose solution at a dose of 2 g/kg body weight (oral glucose tolerance test; OGTT). […].

human glucokinase (GK) = target: T1, human glucokinase (GK) (Homo sapiens, UniProt P35557); test: Glucokinase tandem enzymatic assay; type: biochemical; settings: 12 mM glucose; for EC50: EC50 = concentration to achieve 50% of full activation; for Emax: expressed as % of basal activation, EC50 could not be calculated from the activation curves, read-out: Maximal activation (%) Human Glucokinase @ 12 mM Glucose
T1 construct: Full-length human hepatic GK (untagged) was expressed in BL21 STAR (DE3)pLysS cells; made in house; host or cells: E. coli BL21 STAR (DE3)pLysS
T1 sequence (P35557 1-466 isoform P35557-2): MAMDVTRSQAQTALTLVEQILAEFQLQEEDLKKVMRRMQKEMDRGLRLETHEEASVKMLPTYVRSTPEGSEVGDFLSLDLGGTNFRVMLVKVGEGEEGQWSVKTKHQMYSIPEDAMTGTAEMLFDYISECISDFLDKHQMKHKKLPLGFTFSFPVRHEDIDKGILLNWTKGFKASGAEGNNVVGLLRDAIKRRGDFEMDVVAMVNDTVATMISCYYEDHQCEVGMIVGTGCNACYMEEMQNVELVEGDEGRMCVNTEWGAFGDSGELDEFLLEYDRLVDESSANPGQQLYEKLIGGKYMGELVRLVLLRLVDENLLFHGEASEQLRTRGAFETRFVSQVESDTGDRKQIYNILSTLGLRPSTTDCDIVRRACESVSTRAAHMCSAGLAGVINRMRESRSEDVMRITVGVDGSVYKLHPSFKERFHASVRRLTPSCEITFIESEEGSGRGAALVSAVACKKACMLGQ
Description: Enzymatic activity of human glucokinase (GK) was measured by incubating GK, ATP, and glucose for discrete time periods followed by quenching with EDTA (ethylenediamine tetra-acetic acid). Relative amounts of product glucose-6-phosphate (G6P) were measured by then running a detection assay using G6P dehydrogenase and measuring the conversion of ThioNAD (thio-nicotinamide adenine dinucleotide) to ThioNADH (thio-dihydronicotinamide adenine dinucleotide) at a wavelength of 405 nm. This ‘uncoupled’ enzymatic reaction is denoted as the GK ‘tandem’ assay. Activation of GK by compounds can be assessed using this assay. The GK tandem assay protocol described below was followed using a range of activator compound concentrations from 0 to 100 μM at 5 and 12 mM of glucose. […] To initiate the GK reaction, magnesium-ATP (3 mM final concentration) was added to GK in buffer (final buffer conditions of 25 mM HEPES buffer, pH 7.1, containing 1 mM dithiothreitol and 5% DMSO). The total reaction volume was 20 μL. The reaction was allowed to proceed for ten minutes and was then quenched with 5 μL EDTA; 45 mM final). […] Absorbance was read, background glucose-6-phosphate levels were subtracted, after which activation was calculated as a percentage of control activity. Control activity was determined using GK in the presence of vehicle (DMSO), with background glucose-6-phosphate subtracted. Background glucose-6-phosphate was determined by pre-quenching GK with EDTA prior to reaction initiation with ATP.
Full-length human hepatic GK (untagged) was expressed in BL21 STAR (DE3)pLysS cells (Invitrogen) at 25° C. as described by Mookhtiar et al. (1). The protein was purified essentially as described by Lange (2) with a slight modification. […] The resulting pellet was resuspended in buffer, dialyzed, and applied directly to a Q-Sepharose (Sigma) column followed by elution with a linear 100-600 mM KCl gradient. GK containing fractions were pooled, dialyzed overnight vs. 25 mM Hepes pH 7.2/1 mM MgCl2/1 mM EDTA/0.1 M KCl/1 mM DTT, then dialyzed again with same buffer with 10% glycerol added.

Row | SMILES | EC50 (human glucokinase (GK)) [nM] | other results
1 | CCO[P@](C)(=O)Cc1csc(NC(=O)c2cc(Oc3ccc(S(C)(=O)=O)cc3)cc(O[C@@H](C)COC)c2)n1 (single isomer, unassigned) [Example 54] | 49 | Reduction in Glucose AUC at 30 mg/kg dose [1]: 68-82%
2 | CCOP(=O)(CSc1cnc(NC(=O)[C@H](CC2CCCC2)c2ccc(S(C)(=O)=O)cc2)s1)OCC [Example 22] | 402 | –
3 | CCOP(=O)(CS(=O)(=O)c1cnc(NC(=O)[C@H](CC2CCCC2)c2ccc(S(C)(=O)=O)cc2)s1)OCC [Example 23] | – | Emax (human glucokinase (GK)): 150%
4 | CCOP(=O)(Cc1ccc(NC(=O)c2cc(Oc3ccc(S(C)(=O)=O)cc3)cc(O[C@@H](C)COC)c2)nc1)OCC [Example 29] | 98 | Reduction in Glucose AUC at 30 mg/kg dose [1]: 66-78%
5 | CCOP(=O)(Cn1ccc(NC(=O)c2cc(Oc3ccc(S(C)(=O)=O)cc3)cc(O[C@@H](C)COC)c2)n1)OCC [Example 32] | 65 | Reduction in Glucose AUC ([1]; 30 μmol/kg oral): 79% @ 30 μmol/kg
6 | CCOP(=O)(Cn1ccc(NC(=O)c2cc(O[C@@H](C)COC)cc(O[C@@H](C)Cc3ccccc3)c2)n1)OCC [Example 33] | 26 | –
7 | CCOP(=O)(/C=C/c1cnc(NC(=O)[C@H](CC2CCCC2)c2ccc(S(C)(=O)=O)cc2)s1)OCC [Example 35] | – | Emax (human glucokinase (GK)): 133%
8 | CCOP(=O)(Cc1csc(NC(=O)c2cc(Oc3ccc(S(C)(=O)=O)cc3)cc(O[C@@H](C)COC)c2)n1)OCC [Example 37] | 34 | Reduction in Glucose AUC at 30 mg/kg dose [1]: 88%
9 | CCOP(=O)(Cc1cnc(NC(=O)[C@H](CC2CCOCC2)c2ccc(S(=O)(=O)C3CC3)cc2)cn1)OCC [Example 44] | 564 | Reduction in Glucose AUC at 30 mg/kg dose [1]: 62-80%
10 | CCOP(=O)(Cc1nc(NC(=O)c2cc(Oc3ccc(S(C)(=O)=O)cc3)cc(O[C@@H](C)COC)c2)sc1Cl)OCC [Example 50] | 22 | –
11 | CCOP(=O)(Cc1nc(NC(=O)c2cc(Oc3ccc(S(C)(=O)=O)cc3)cc(O[C@@H](C)COC)c2)sc1Br)OCC [Example 51] | 15 | –
12 | COC[C@H](C)Oc1cc(Oc2ccc(S(C)(=O)=O)cc2)cc(C(=O)Nc2nc(CP(C)(=O)O)cs2)c1 [Example 56] | 534 | –
13 | CCOP(=O)(Cc1csc(NC(=O)c2cc(CN3CCOC3=O)cc(OC)c2)n1)OCC [Example 65] | – | Emax (human glucokinase (GK)): 162%
14 | CCOP(=O)(Cc1csc(NC(=O)Cc2ccc(OC)cc2OC)n1)OCC [Example 74] | – | Emax (human glucokinase (GK)): 142%
15 | CCOP(=O)(Cc1csc(NC(=O)c2ccc3c(c2)OCCO3)n1)OCC [Example 79] | – | Emax (human glucokinase (GK)): 133%
16 | CCOP(=O)(Cc1csc(NC(=O)c2nn(CC3CC3)c3cc(S(C)(=O)=O)ccc23)n1)OCC [Example 86] | – | Emax (human glucokinase (GK)): 141%
17 | CCOP(=O)(Cc1csc(NC(=O)c2cc(OC(C)C)cc(O[C@H]3CCN(C(C)=O)C3)c2)n1)OCC [Example 112] | 428 | –
18 | CCOP(=O)(Cc1csc(NC(=O)c2cc(OC(C)C)cc(O[C@H]3CCN(S(C)(=O)=O)C3)c2)n1)OCC [Example 113] | 437 | –
19 | CCOP(=O)(Cc1csc(NC(=O)c2cc(OC(C)C)cc(O[C@@H]3CCN(C(=O)OC)C3)c2)n1)OCC [Example 116] | 469 | –
20 | CCOP(=O)(Cc1csc(NC(=O)c2cc(OCC(O)c3ccccc3)cc(OC(C)C)c2)n1)OCC (centres unmarked) [Example 121] | – | Emax (human glucokinase (GK)): 126%
21 | CCOP(=O)(Cn1ccc(NC(=O)c2cc(OCC(F)(F)c3ccccc3)cc(OC(C)C)c2)n1)OCC [Example 122] | 23 | –
22 | CCOP(=O)(Cc1csc(NC(=O)c2cc(OCC(F)(F)c3ccccc3)cc(OC(C)C)c2)n1)OCC [Example 123] | – | Emax (human glucokinase (GK)): 135%
23 | CCOP(=O)(Cc1csc(NC(=O)c2cc(OCCSC)cc(O[C@@H](C)COC)c2)n1)OCC [Example 134] | 476 | –
24 | CCOP(=O)(Cc1csc(NC(=O)c2cc(O[C@@H](C)CO)cc(O[C@@H](C)Cc3ccccc3)c2)n1)OCC [Example 137] | 21 | –
25 | CCOP(=O)(Cc1csc(NC(=O)c2cc(OCCCS(C)(=O)=O)cc(O[C@@H](C)COC)c2)n1)OCC [Example 139] | 467 | –
26 | CCOP(=O)(Cc1csc(NC(=O)c2cc(O[C@@H](C)COC)cc(O[C@@H](C)Cc3ccccc3)c2)n1)OCC [Example 145] | 24 | Reduction in Glucose AUC at 30 mg/kg dose [1]: 71%
27 | CCOP(=O)(Cc1csc(NC(=O)c2cc(OC(C)C)cc(OC(C)C)c2)n1)OCC [Example 148] | 178 | Reduction in Glucose AUC at 30 mg/kg dose [1]: 60%
28 | COC[C@H](C)Oc1cc(Oc2ccc(S(C)(=O)=O)cc2)cc(C(=O)Nc2nc(CP3(=O)OCCCO3)cs2)c1 [Example 169] | 9 | –
